Columns and labels:
[1] = test system: T1, ancestral 3-ketosteroid receptor (ancSR2); assay: X-ray crystal structure at […] Å (ternary complex, surface sites); the EC50 is from a separate CHO-K1 luciferase reporter assay and is not assigned to these sites; type: cell-based, synthetic construct
T1 construct: ancSR2 LBD, residues 2 through 248 modeled

[2] = test system: T1, ancestral 3-ketosteroid receptor (ancSR2); assay: X-ray crystal structure at […] Å; the EC50 is from a Gal4-DBD–LBD luciferase reporter assay in CHO-K1 cells; type: cell-based, synthetic construct

Row | EC50 [1] | Compound | EC50 [2]
1 | 56 ± 1.2 nM | CC#C[C@]1(O)CC[C@H]2[C@@H]3CCC4=CC(=O)CCC4=C3[C@@H](c3ccc(N(C)C)cc3)C[C@@]21C [mifepristone] | 
2 |  | CC(=O)[C@H]1CC[C@H]2[C@@H]3CCC4=CC(=O)CC[C@]4(C)[C@H]3CC[C@]12C [progesterone] | 0.078 ± 0.0017 nM

— paper PMC3834340, “X-Ray Crystal Structure of the Ancestral 3-Ketosteroid Receptor–Progesterone–Mifepristone Complex Shows Mifepristone Bound at the Coactivator Binding Interface” (PLoS ONE, 2013)
